In paper PMC5421464, “Characterization of the single-subunit oligosaccharyltransferase STT3A from Trypanosoma brucei using synthetic peptides and lipid-linked oligosaccharide analogs” (Glycobiology, 2017):
Marks after values point to notes of the source that are not given here. Ends that are not written are not given here. * marks the point of attachment. 5FAM = O=C1OC2(c3ccc(O)cc3Oc3cc(O)ccc32)c2ccc(C(=O)*)cc21

What was measured:
Type in all cases: biochemical
TbSTT3A [1] = biological target: T1, TbSTT3A (Trypanosoma brucei, UniProt Q57W34); experiment: Michaelis-Menten kinetics of the LLO analogs; conditions: for kcat (LLO analog): 20 nM TbSTT3A, 10 µM acceptor peptide, varying LLO analog concentration
T1 sequence (Q57W34 1-801): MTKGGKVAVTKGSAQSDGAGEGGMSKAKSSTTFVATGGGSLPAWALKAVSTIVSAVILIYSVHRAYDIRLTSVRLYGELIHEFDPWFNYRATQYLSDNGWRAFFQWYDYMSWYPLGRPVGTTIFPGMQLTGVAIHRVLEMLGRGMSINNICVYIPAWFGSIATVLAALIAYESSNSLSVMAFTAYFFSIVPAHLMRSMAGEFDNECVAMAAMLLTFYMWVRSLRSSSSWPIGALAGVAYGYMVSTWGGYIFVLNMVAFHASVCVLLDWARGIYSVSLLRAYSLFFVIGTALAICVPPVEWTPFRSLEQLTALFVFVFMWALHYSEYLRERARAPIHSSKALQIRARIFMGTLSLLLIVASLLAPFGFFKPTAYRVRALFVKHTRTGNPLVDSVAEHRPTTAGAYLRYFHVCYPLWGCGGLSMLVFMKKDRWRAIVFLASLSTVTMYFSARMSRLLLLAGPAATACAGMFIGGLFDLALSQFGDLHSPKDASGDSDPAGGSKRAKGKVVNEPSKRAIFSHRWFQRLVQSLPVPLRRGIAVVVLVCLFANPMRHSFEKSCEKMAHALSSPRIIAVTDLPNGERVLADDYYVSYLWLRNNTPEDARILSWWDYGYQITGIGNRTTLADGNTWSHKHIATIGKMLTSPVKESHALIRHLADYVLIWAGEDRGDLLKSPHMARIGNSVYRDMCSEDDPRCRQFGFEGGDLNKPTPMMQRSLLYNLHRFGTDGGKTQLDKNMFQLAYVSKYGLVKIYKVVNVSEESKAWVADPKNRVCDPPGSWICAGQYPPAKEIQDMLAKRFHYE
Description: Fig. 3. (A) Structure of the LLO analogs synthesized (1a) (S)-Citronellyl-PP-Chitobiose, C10; (1b) farnesyl-PP-chitobiose, C15; (1c) (S)-NerylCitronellyl-PP-chitobiose, C20; (1d) (S)-farnesylCitronellyl-PP-chitobiose, C25. (B) Kinetic analysis of synthetic LLO analogs. Glycosylation experiments were performed with 20 nM purified TbSTT3A, 10 µM […], 10 mM MnCl2, 150 mM NaCl, 20 mM Hepes pH 7.5, 0.035% DDM, 0.007% CHS and different concentrations of synthetic LLO analogs. Data points reflect the mean of 3 separate measurements. Error bars indicate standard deviations. Data were fitted by nonlinear regression according to the Michaelis–Menten formula using PRISM software. This figure is available in black and white in print and in color at Glycobiology online.
For Michaelis–Menten kinetics of the LLO analogs, reaction mixtures containing 20 nM TbSTT3A protein, 10 µM peptide P11, 10 mM MnCl2, 150 mM NaCl, 20 mM Hepes pH 7.5, 0.035% DDM and 0.007% CHS were incubated with different concentrations of LLO analogs (10–900 µM, for 1a; 2–60 µM, for 1b; 1–50 µM, for 1c and 1–20 µM, for 1d). Samples were taken at different time points and turnover rates of the reactions were determined as before. Data were fitted by nonlinear regression according to the Michaelis–Menten formula using PRISM software.

TbSTT3A [2] = biological target: T1, TbSTT3A; experiment: Inhibition analysis with LLO competitive inhibitors; conditions: 20 nM TbSTT3A, 10 µM peptide P11, inhibitor 1-2500 µM preincubated 5 min, 15 µM farnesyl-PP-chitobiose 1b
Description: Fig. 5. (A) Structure of the LLO inhibitors synthesized (34b) farnesyl-PP-C-chitobiose, C15; (34d) (S)-farnesylCitronellyl-PP-C-chitobiose, C25. (B) Kinetic analysis of synthetic LLO inhibitors. Glycosylation experiments were performed with 20 nM TbSTT3A protein, 10 µM peptide P11, 10 mM MnCl2, 150 mM NaCl, 20 mM Hepes pH 7.5, 0.035% DDM and 0.007% CHS. Samples were incubated with LLO competitive inhibitors (1–2500 µM) for 5 min before adding 15 µM of farnesyl-PP-chitobiose, 1b. Data points reflect the mean of three separate measurements. Error bars indicate standard deviations. Data were fitted by nonlinear regression using PRISM software. This figure is available in black and white in print and in color at Glycobiology online.
For inhibition analysis, reaction mixtures containing 20 nM TbSTT3A protein, 10 µM peptide P11, 10 mM MnCl2, 150 mM NaCl, 20 mM Hepes pH 7.5, 0.035% DDM and 0.007% CHS were incubated with different concentrations of LLO competitive inhibitors (1–2500 µM) for 5 min at 30°C. Reactions were started with addition of 15 µM of farnesyl-PP-chitobiose, 1b. Samples were taken at different time points and turnover rates of the reactions were determined as before. Data were fitted to nonlinear regression and IC50 was determined using PRISM software.

TbSTT3A [3] = biological target: T1, TbSTT3A; experiment: In vitro glycosylation assay, turnover rate of acceptor peptides (Tricine SDS-PAGE fluorescence)
Description: (§1) Fig. 2. Optimization of the acceptor peptide sequence. (A) Synthetic acceptor peptides are shown in single letter code. The acceptor asparagine (zero position of the sequon) is indicated in red. Glycosylation experiments were performed and the fluorescently labeled substrate (G0) and product (G1) were quantified following Tricine SDS-PAGE analysis. (B) Turnover rates after fitting the time points by linear regression using PRISM. Error bars indicate standard error of the fitting. (C) Kinetic analysis of substrate peptides: glycosylation experiments were performed with 20 nM purified TbSTT3A, 50 µM farnesyl-PP-chitobiose, 10 mM MnCl2, 150 mM NaCl, 20 mM Hepes pH 7.5, 0.035% DDM, 0.007% CHS and different concentrations of peptides varying from 2 to 60 µM. Data points reflect the mean of three separate measurements. Error bars indicate standard deviations. Data were fitted by nonlinear regression according to the Michaelis–Menten formula using PRISM. This figure is available in black and white in print and in color at Glycobiology online.
Reaction mixtures contained 20 nM purified TbSTT3A protein, 50µM farnesyl-PP-GlcNAc or farnesyl-PP-chitobiose, 10 mM MnCl2, 150 mM NaCl, 20 mM Hepes pH 7.5, 0.035% DDM, 0.007% CHS and 20 µM of the peptide. Reactions were incubated at 30°C. Samples were taken at different time points and reactions were stopped by the addition of 4X SDS Laemmli buffer. Samples were diluted 200-fold prior to analysis by Tricine SDS-PAGE consisting of a 16% resolving gel with 6 M urea, a 10% spacer gel and a 4% stacking gel ([Schägger 2006]). Fluorescent bands for peptide and glycopeptide were visualized by using a Typhoon Trio Plus imager (GE Healthcare) with excitation set at 488 nm and using a 526 nm SP emission filter. The amount of formed glycopeptide was determined from band intensities of fluorescence gel scans (ImageJ) ([Gerber et al. 2013]). Turnover rate determination was performed by fitting of the data to linear regression using PRISM software.
Supplementary Figure 2: Glycosylation Assays with farnesyl-PP-GlcNAc. In vitro glycosylation experiments were performed with 20nM purified TbStt3A purified protein, 50µM Farnesyl-PP-GlcNAc or Farnesyl-PP-GlcNac2, 10 mM MnCl2, 150 mM NaCl, 20 mM Hepes pH 7.5, 0.035% DDM, 0.007% CHS and 10 µM of the peptide P1.

TbSTT3A [4] = biological target: T1, TbSTT3A; experiment: Michaelis-Menten kinetics of the peptides; conditions: 20 nM TbSTT3A, 50 µM farnesyl-PP-chitobiose, peptide 2-60 µM, 30°C
Description: as §1
For Michaelis–Menten kinetics of the peptides, reaction mixtures containing 20 nM TbSTT3A protein, 50 µM farnesyl-PP-chitobiose, 10 mM MnCl2, 150 mM NaCl, 20 mM Hepes pH 7.5, 0.035% DDM and 0.007% CHS were incubated with varying concentrations (2–60 µM) of peptides P11, P13 and P14. Samples were taken at different time points and the turnover rate of the reactions were determined as before. Data were fitted by nonlinear regression according to the Michaelis–Menten formula using PRISM software.

## CC(=O)NC1C(OC2C(CO)OC(OP(=O)(O)OP(=O)(O)OCCC(C)CCC=C(C)CCC=C(C)CCC=C(C)C)C(NC(C)=O)C2O)OC(CO)C(O)C1O [1c, P1-2-acetamido-O-(2-acetamido-2-deoxy-β-D-glucopyranosyl)-(1-4)-2-deoxy-α-D-glucopyranosyl P2-(3S,6Z,10Z)-3,7,11,15-tetramethylhexadeca-6,10,14-trien-1-yl diphosphate]
TbSTT3A [1]
  kcat (LLO analog): 23 ± 1 pep/min

## CC(=O)N[C@@H]1[C@@H](O)[C@H](O[C@@H]2O[C@H](CO)[C@@H](O)[C@H](O)[C@H]2NC(C)=O)[C@@H](CO)O[C@@H]1CP(=O)(O)OP(=O)(O)OC/C=C(\C)CC/C=C(\C)CCC=C(C)C [34b, (((2S,3R,4R,5S,6R)-3-acetamido-5-(((2S,3R,4R,5S,6R)-3-acetamido-4,5-dihydroxy-6-(hydroxymethyl)tetrahydro-2H-pyran-2-yl)oxy)-4-hydroxy-6-(hydroxymethyl)tetrahydro-2H-pyran-2-yl)methyl)phosphonic ((2E,6E)-3,7,11-trimethyldodeca-2,6,10-trien-1-ylphosphoric) anhydride]
TbSTT3A [2]
  IC50: 167 ± 14 µM

## 5CF-GSDANYTYTQ (5FAM-GSDANYTYTQ) [P14, 5-carboxyfluorescein labeled acceptor peptide, P11 elongated at the C-terminus]
TbSTT3A [3]; from the initial DANYTK to GSDANYTYTQ
  Increase in glycosylation turnover: about 3 fold
TbSTT3A [4]
  kcat (substrate peptide): 28 ± 1 pep/min
TbSTT3A [4]; read-out: KM (substrate peptide)
  Km: 28 ± 3 µM

## 5CF-GSDANYTY (5FAM-GSDANYTY) [P11, 5-carboxyfluorescein labeled acceptor peptide]
TbSTT3A [3]; farnesyl-PP-chitobiose 1b donor
  Glycosylation of acceptor peptide (result in words): highest turnover rate
TbSTT3A [4]
  kcat (substrate peptide): 37 ± 5^a pep/min

## CC(=O)N[C@H]1[C@@H](OP(=O)(O)OP(=O)(O)OCC[C@@H](C)CC/C=C(/C)CC/C=C(\C)CC/C=C(\C)CCC=C(C)C)O[C@H](CO)[C@@H](O[C@@H]2O[C@H](CO)[C@@H](O)[C@H](O)[C@H]2NC(C)=O)[C@@H]1O [1d, P1-2-acetamido-O-(2-acetamido-2-deoxy-β-D-glucopyranosyl)-(1-4)-2-deoxy-α-D-glucopyranosyl P2-(S,6Z,10E,14E)-3,7,11,15,19-pentamethylicosa-6,10,14,18-tetraen-1-yl diphosphate]
TbSTT3A [1]
  kcat (LLO analog): 16 ± 1 pep/min

## CC(=O)N[C@H]1[C@@H](OP(=O)(O)OP(=O)(O)OC/C=C(\C)CC/C=C(\C)CCC=C(C)C)O[C@H](CO)[C@@H](O[C@@H]2O[C@H](CO)[C@@H](O)[C@H](O)[C@H]2NC(C)=O)[C@@H]1O [1b, P1-2-acetamido-O-(2-acetamido-2-deoxy-β-D-glucopyranosyl)-(1-4)-2-deoxy-α-D-glucopyranosyl P2-(2E,6E)-3,7,11-Trimethyldodeca-2,6,10-trien-1-yl diphosphate]
TbSTT3A [1]
  kcat (LLO analog): 12 ± 1 pep/min
TbSTT3A [1]; from KM values, Table II
  Apparent affinity lower compared to 1d: 2 fold

## CC(=O)N[C@@H]1[C@@H](O)[C@H](O[C@@H]2O[C@H](CO)[C@@H](O)[C@H](O)[C@H]2NC(C)=O)[C@@H](CO)O[C@@H]1CP(=O)(O)OP(=O)(O)OCC[C@@H](C)CC/C=C(/C)CC/C=C(\C)CC/C=C(\C)CCC=C(C)C [34d, (((2S,3R,4R,5S,6R)-3-acetamido-5-(((2S,3R,4R,5S,6R)-3-acetamido-4,5-dihydroxy-6-(hydroxymethyl)tetrahydro-2H-pyran-2-yl)oxy)-4-hydroxy-6-(hydroxymethyl)tetrahydro-2H-pyran-2-yl)methyl)phosphonic ((S,6Z,10E,14E)-3,7,11,15,19-pentamethylicosa-6,10,14,18-tetraen-1-ylphosphoric) anhydride]
TbSTT3A [2]
  IC50: 26 ± 3 µM

## CC(=O)N[C@H]1[C@@H](OP(=O)(O)OP(=O)(O)OCC[C@@H](C)CCC=C(C)C)O[C@H](CO)[C@@H](O[C@@H]2O[C@H](CO)[C@@H](O)[C@H](O)[C@H]2NC(C)=O)[C@@H]1O [1a, P1-2-acetamido-O-(2-acetamido-2-deoxy-β-D-glucopyranosyl)-(1-4)-2-deoxy-α-D-glucopyranosyl P2-(S)-3,7-dimethyloct-6-en-1-yl diphosphate]
TbSTT3A [1]
  kcat (LLO analog): 9.1 ± 0.5 pep/min
